Test results: ChEMBL document CHEMBL5352475, “Design, synthesis, and biological evaluation of novel glutaminase 1 allosteric inhibitors with an alkane chain tail group” (Eur J Med Chem, 2023)
Converted amounts (≈) assume the structure as drawn.

Experiments:
HCT-116 [1] = experiment: cells; conditions: Homo sapiens, HCT-116, 72 h
Description: Antiproliferative activity against human HCT-116 cells incubated for 72 hrs by MTT assay

[2] = target: T1, Glutaminase kidney isoform, mitochondrial (Homo sapiens, UniProt O94925); experiment: Inhibition of GLS1 (unknown origin) preincubated for 10 mins followed by glutamine addition measured after 60 mins
T1 sequence (O94925 whole entry): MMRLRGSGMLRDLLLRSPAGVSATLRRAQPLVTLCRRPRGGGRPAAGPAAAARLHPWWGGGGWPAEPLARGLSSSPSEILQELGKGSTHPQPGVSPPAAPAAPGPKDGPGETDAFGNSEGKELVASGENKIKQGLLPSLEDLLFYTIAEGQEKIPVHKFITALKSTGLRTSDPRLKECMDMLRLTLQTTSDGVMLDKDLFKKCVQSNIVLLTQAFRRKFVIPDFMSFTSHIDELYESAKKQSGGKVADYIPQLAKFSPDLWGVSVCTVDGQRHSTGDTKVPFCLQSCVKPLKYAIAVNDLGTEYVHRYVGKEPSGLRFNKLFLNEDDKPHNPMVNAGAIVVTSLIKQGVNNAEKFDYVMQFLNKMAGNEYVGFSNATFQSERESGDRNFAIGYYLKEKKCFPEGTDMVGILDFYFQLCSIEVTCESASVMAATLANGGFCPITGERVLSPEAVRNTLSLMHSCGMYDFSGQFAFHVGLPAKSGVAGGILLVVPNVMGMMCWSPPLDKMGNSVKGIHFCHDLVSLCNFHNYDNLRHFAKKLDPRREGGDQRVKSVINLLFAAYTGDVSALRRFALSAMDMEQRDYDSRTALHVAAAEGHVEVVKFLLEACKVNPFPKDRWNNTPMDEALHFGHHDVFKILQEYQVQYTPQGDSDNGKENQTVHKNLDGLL

HCT-116 [3] = experiment: Antitumor activity against human HCT-116 cells xenografted in BALB/c nude mouse assessed as tumor growth inhibition at 100 mg/kg, ip for 20 days relative to control; type: functional; conditions: Mus musculus, HCT-116, 480 h, time 20 day, read-out: TGI
[4] = Metabolic stability in human liver microsomes assessed as clearance measured upto 120 mins by LC-MS/MS analysis; type: ADME, Microsome; conditions: read-out: CLH
[5] = Metabolic stability in human liver microsomes assessed as half life by LC-MS/MS analysis; type: ADME, Microsome
[6] = Intrinsic aqueous solubility of the compound in PBS buffer at pH 7.4 measured after 72 hrs by LC-MS analysis; type: physicochemical; conditions: read-out: Intrinsic_solubility
[7] = target: T2, Glutaminase kidney isoform, mitochondrial (Homo sapiens) (UniProt O94925)
T2 sequence (whole entry): T1 sequence (O94925 whole entry)
Description: Stabilization of GLS1 (unknown origin) assessed as change in melting temperature by protein thermal assay

Row | Compound | IC50 (HCT-116 [1]) [nM] | IC50 [2] [nM] | also measured
1 | C=CCCOc1cccc(CC(=O)Nc2nnc(CCCCc3ccc(NC(=O)CCC=C)nn3)s2)c1 | 1520 | 240 | –
2 | C=CCCC(=O)Nc1nnc(CCCCc2ccc(NC(=O)Cc3cccc(OC(=O)CCC=C)c3)nn2)s1 | 7900 | 140 | –
3 | C=CCCOc1cccc(CC(=O)Nc2nnc(CCCCc3ccc(NC(=O)CC=C)nn3)s2)c1 | 24900 | > 5000 | –
4 | C=CCCCCOc1cccc(CC(=O)Nc2ccc(CCCCc3nnc(N)s3)nn2)c1 | 1090 | 280 | –
5 | O=C(Cc1ccccc1)Nc1nnc(CCSCCc2nnc(NC(=O)Cc3ccccc3)s2)s1 | – | – | inhibition in vivo at 100 mg/kg (HCT-116 [3]): 31.3%
6 | CCCCC(=O)Nc1nnc(CCCCc2ccc(NC(=O)Cc3cccc(O)c3)nn2)s1 | 6820 | 170 | –
7 | C#CCCC(=O)Nc1nnc(CCCCc2ccc(NC(=O)Cc3cccc(OCCC=C)c3)nn2)s1 | 2250 | 290 | –
8 | C=CCCOc1cccc(CC(=O)Nc2ccc(N3CCC(Nc4nnc(NC(=O)CCC=C)s4)CC3)nn2)c1 | 430 | 19 | microsomal CLint [4]: 50.2 µL/min/mg; half-life [5]: 68.6 min
9 | C=CCCCOc1cccc(CC(=O)Nc2nnc(CCCCc3ccc(NC(=O)CCC=C)nn3)s2)c1 | 3700 | 36 | –
10 | C=CCCCCOc1cccc(CC(=O)Nc2ccc(CCCCc3nnc(NC(=O)C4CC(F)(F)C4)s3)nn2)c1 | 1680 | 32 | microsomal CLint [4]: 39.5 µL/min/mg; half-life [5]: 87.8 min
11 | C=CCCCOc1cccc(CC(=O)Nc2ccc(CCCCc3nnc(NC(=O)CCC=C)s3)nn2)c1 | 920 | 79 | –
12 | C=CCCC(=O)Nc1nnc(CCCCc2ccc(NC(=O)Cc3cccc(O)c3)nn2)s1 | 2630 | 530 | –
13 | C=CCCCCOc1cccc(CC(=O)Nc2nnc(CCCCc3ccc(NC(=O)CCC=C)nn3)s2)c1 | 660 | 34 | –
14 | CCCCCCOc1cccc(CC(=O)Nc2ccc(CCCCc3nnc(NC(=O)C4CC(F)(F)C4)s3)nn2)c1 | 1230 | 24 | solubility at 72 h [6]: 4.1 µg/mL (≈ 6.99 µM)
15 | CCCCCNc1cccc(CC(=O)Nc2ccc(CCCCc3nnc(NC(=O)CCCC)s3)nn2)c1 | – | > 20000 | –
16 | CCCCNc1cccc(CC(=O)Nc2ccc(CCCCc3nnc(NC(=O)CCCC)s3)nn2)c1 | – | > 20000 | –
17 | C=CCCOc1cccc(CC(=O)Nc2ccc(CCCCc3nnc(NC(=O)CCC=C)s3)nn2)c1 | 1370 | 87 | –
18 | CCCCCCCCOc1cccc(CC(=O)Nc2ccc(CCCCc3nnc(NC(=O)CCCC)s3)nn2)c1 | 210 | 17 | –
19 | CCCCOc1cccc(CC(=O)Nc2ccc(CCCCc3nnc(NC(=O)C4CC(F)(F)C4)s3)nn2)c1 | 1860 | 68 | solubility at 72 h [6]: 6.23 µg/mL (≈ 11.2 µM)

Row | Compound | IC50 (HCT-116 [1]) [nM] | IC50 [2] [nM] | also measured
20 | CCCCC(=O)Nc1nnc(CCCCc2ccc(NC(=O)Cc3cccc(OCCC)c3)nn2)s1 | 820 | 130 | –
21 | C=CCCCCOc1cccc(CC(=O)Nc2ccc(CCCCc3nnc(NC(=O)CCC=C)s3)nn2)c1 | 310 | 25.1 | solubility at 72 h [6]: 3.6 µg/mL (≈ 6.56 µM); microsomal CLint [4]: 138 µL/min/mg; ΔTm [7]: 13.9 °C; half-life [5]: 25.1 min
22 | C#CCCC(=O)Nc1nnc(CCCCc2ccc(NC(=O)Cc3cccc(OC(=O)CCC#C)c3)nn2)s1 | 5260 | 390 | –
23 | C=CCCOc1cccc(CC(=O)Nc2ccc(CCCCc3nnc(NC(=O)CC=C)s3)nn2)c1 | 1600 | 110 | –
24 | C#CCCC(=O)Nc1nnc(CCCCc2ccc(NC(=O)Cc3cccc(O)c3)nn2)s1 | 3440 | 580 | –
25 | CCCCCOc1cccc(CC(=O)Nc2ccc(CCCCc3nnc(NC(=O)CCCC)s3)nn2)c1 | 2180 | 24 | –
26 | C=CCCCOc1cccc(CC(=O)Nc2nnc(CCCCc3ccc(NC(=O)CC=C)nn3)s2)c1 | 29400 | > 5000 | –
27 | CCCCC(=O)Nc1nnc(CCCCc2ccc(NC(=O)Cc3cccc(OCC)c3)nn2)s1 | 8540 | 220 | –
28 | CCCCCCCOc1cccc(CC(=O)Nc2ccc(CCCCc3nnc(NC(=O)CCCC)s3)nn2)c1 | 1960 | 17 | –
29 | CCCCOc1cccc(CC(=O)Nc2ccc(CCCCc3nnc(NC(=O)C4CC4)s3)nn2)c1 | 2640 | 160 | solubility at 72 h [6]: 0.71 µg/mL (≈ 1.4 µM)
30 | CCCCCCOc1cccc(CC(=O)Nc2ccc(CCCCc3nnc(NC(=O)CCCC)s3)nn2)c1 | 380 | 19 | microsomal CLint [4]: 134 µL/min/mg; half-life [5]: 26 min
31 | CCCCOc1cccc(CC(=O)Nc2ccc(OC3CC4CCC(C3)N4c3nnc(NC(=O)CCCC)s3)nn2)c1 (stereo not given) | 16900 | > 20000 | –
32 | C#CCOc1cccc(CC(=O)Nc2ccc(CCCCc3nnc(NC(=O)CCCC)s3)nn2)c1 | > 10000 | 1050 | –
33 | CCCCCOc1cccc(CC(=O)Nc2ccc(CCCCc3nnc(NC(=O)C4CC4)s3)nn2)c1 | 4030 | 36 | solubility at 72 h [6]: 0.52 µg/mL (≈ 0.995 µM)
34 | CCCCOc1cccc(CC(=O)Nc2ccc(CCCCc3nnc(NC(=O)CCCC)s3)nn2)c1 | 380 | 27 | microsomal CLint [4]: 63.5 µL/min/mg; half-life [5]: 54.6 min
35 | CCCCC(=O)Nc1nnc(CCCCc2ccc(NC(=O)Cc3cccc(N)c3)nn2)s1 | – | 520 | –
36 | CCCCCCNc1cccc(CC(=O)Nc2ccc(CCCCc3nnc(NC(=O)CCCC)s3)nn2)c1 | – | > 20000 | –
37 | CCCCC(=O)Nc1nnc(CCCCc2ccc(NC(=O)Cc3cccc(OC)c3)nn2)s1 | 2460 | 190 | –
